Here are results for one molecule from patent publication US20260364056A1, “METHODS OF TREATMENT OF NON-PANCREATIC GASTROINTESTINAL CANCERS” (IONCTURA bv, priority 2023, published 2026).

For data set [1], the system named is HT-29 cells. Briefly: Cell viability assay (crystal violet). The format is cell-based, human. The method, then: (§1) Human colorectal adenocarcinoma HT29 and Caco-2 cells, hepatocellular carcinoma HLE cells, cholangiocarcinoma RBE and KKU-M213 cells were purchased from the American […] Culture Collection (ATCC, Manassas, VA, USA). The hepatocellular carcinoma cell line HLF was purchased from JCRB Cell Bank (Japan). All cell lines were cultured in Dulbecco's Modified Eagle Medium (DMEM) supplemented with 10% foetal bovine serum (FBS), 1 mM pyruvate, 25 mM HEPES, 100 U/mL penicillin-streptomycin (all from Thermo Fisher Scientific, Waltham, MA, USA), and maintained in a humidified atmosphere at 37 °C containing 5% CO2. The medium was changed every three days. Oleoyl-LPA was purchased from Avanti Polar Lipids (Birmingham, AL).
(§2) Cells were seeded in 96-well plates at a density of 2000 cells/well in 10% FBS supplemented medium. After 24 h, medium was removed, the cells washed with PBS and cultured in the presence or absence of FBS and of different concentrations of Compound land LPA. After the time set for the experiment, the cells were fixed with a 4% PFA solution and stained with 0.02% crystal violet for 10 min. Subsequently the plates have been washed with water to remove excess dye. The cell-bound dye was redissolved in 1% SDS and the optical density was measured at λ=570 with a iMark™ Microplate Absorbance Reader (Bio-rad).
(§3) FIGS. 2A and 2B show the effect of Compound 1 on cell proliferation in the absence of FBS and in the presence of 10% FBS. […] Cells were grown in serum free culture medium or in presence of 10% FBS and incubated with increasing Compound 1 concentrations or with DMSO (control cells) for 24, 48 and 72 hours. After fixation, proliferation was assessed by crystal violet staining method. *P<0.05.
(§4) To evaluate the anti-proliferative/cytotoxic effects of Compound 1, six different cancer tumour cell lines were treated developed from cholangiocarcinoma (CCA), hepatocellular carcinoma (HCC) and colorectal cancer (CRC), with increasing concentration of the Compound 1 ranging from 10 μM up to 50 μM and at different times of incubation. After 24, 48 and 72 hours of drug treatment, attached cells were fixed and stained with crystal violet dye. This method is used to evaluate the effect of chemotherapeutics or other anti-cancer drugs on cell survival and proliferation. In the first experiments, Compound 1 was administered to cells in culture medium supplemented with 10% FBS. […] To test the hypothesis that the presence of serum, and consequently the endogenous LPA, could interfere with the Compound 1 activity, all the cancer cells were treated with Compound 1 at concentration ranging from 1 μM up to 12 μM, in the presence or absence of 10% FBS.

The next data set has as its system Caco2 cells. Nature of the data set: Cell viability assay (crystal violet). The format is cell-based, human. The method, then:
as §1, §2, §3, §4

A further data set deals with RBE cells. Briefly: Cell viability assay (crystal violet). The format is cell-based, human. The method, then:
as §1, §2, §3, §4

Data set [2] concerns KKU-M213 cells. Briefly: Cell viability assay (crystal violet). The format is cell-based, human. The method, then: as §1, §2, §3, §4
Data set [3] has as its system apoptosis-related proteins. Nature of the data set: Human apoptosis antibody array. The format is cell-based. To be noted: 12 μM, 24 h, vs untreated cells. As to the method: The Human Apoptosis Antibody Array Kit (ab134001, Abcam) was used to detect the apoptosis pathway. Briefly, cells were lysed and each membrane was incubated at 4 °C overnight with 500 μg of total extracted protein. Membranes were then washed and incubated overnight at 4 °C with Biotin-conjugated Anti-Cytokines. After an incubation of the membranes with HRP-streptavidin for 2 h at room temperature, chemiluminescence was detected using ChemiDoc XRS+ (Bio-Rad, Hercules, CA, USA). The images were analysed with Image Lab 5.2.1.
The representative images were randomly selected from at least 3 independent experiments.
To further explore the activity of Compound 1 on gastrointestinal cancer cells, the effectiveness on cell apoptosis was investigated. Following incubation with Compound 1, cells underwent morphological changes of cell shrinkage and cytoplasmic vacuolization (FIG. 1C). An early event in apoptosis is represented by the loss of plasma membrane asymmetry, resulting in the translocation of phosphatidylserine (PS) from the inner to the outer plasma membrane leaflet. Exposed PS on the cell surface can be used to measure apoptosis by the binding with Annexin V. KKU-M213, HLE and HT-29 cells were incubated with increasing concentrations of Compound 1 (3, 9 and 12 μM). After 4 hours, cells were stained with a FITC-Annexin V antibody and fixed. […]

In data set [4] the test system is HT-29 cells. Briefly: Annexin V staining (early apoptosis). The format is cell-based, human. To be noted: 3, 9 and 12 mM (so in the source), 4 h, serum-free, dose dependent. As to the method: (§5) For detection of early apoptosis the Annexin V-FITC kit (Miltenyi Biotech) was used. Cells were seeded and grown on Nunc Lab-Tek II Chamber Slide. After a wash with PBS, cells were incubated with Compound 1 3, 9 and 12 μM in serum-free medium. After […] cells were washed with Binding Buffer (BB) and stained with a solution of Annexin V-FITC antibody in BB for 15′. After 2 washes with BB the cells were fixed with a 4% paraformaldehyde solution and a coverslip was mounted onto the slide using a DAPI Ready Made Solution with Antifade (Merck). Images were acquired using a confocal microscope Nikon Eclipse Ti2 and analysed with image-J.
(§6) Fluorescence microscopy of cells treated with 3, 9 and 12 μM Compound 1 for 4 h and stained with Annexin V-FITC antibody. Annexin V positive cells are early apoptotic cells. Green fluorescence (Annexin V) was quantified using ImageJ software and correlated to DAPI blue fluorescence (nuclei).
(§7) To further explore the activity of Compound 1 on gastrointestinal cancer cells, the effectiveness on cell apoptosis was investigated. Following incubation with Compound 1, cells underwent morphological changes of cell shrinkage and cytoplasmic vacuolization (FIG. 1C). An early event in apoptosis is represented by the loss of plasma membrane asymmetry, resulting in the translocation of phosphatidylserine (PS) from the inner to the outer plasma membrane leaflet. Exposed PS on the cell surface can be used to measure apoptosis by the binding with Annexin V. KKU-M213, HLE and HT-29 cells were incubated with increasing concentrations of Compound 1 (3, 9 and 12 μM). After 4 hours, cells were stained with a FITC-Annexin V antibody and fixed. […] Moreover, a human apoptosis antibody array was used to identify the differential expression of 43 apoptosis-related proteins in cells treated with 12 μM Compound 1 for 24 h compared to untreated cells.

A further data set relates to HLE cells. Briefly: Annexin V staining (early apoptosis). The format is cell-based, human. The settings on record: 9 and 12 mM (so in the source), 4 h, serum-free; same effect = significantly (p<0.05) induced cell apoptosis. As to the method: as §5, §6, §7
The test system of data set [5] is KKU-M213 cells. Nature of the data set: Annexin V staining (early apoptosis). The format is cell-based, human. To be noted: 3, 9 and 12 mM (so in the source), 4 h, serum-free, dose dependent. The method, then: as §5, §6, §7
Another data set has as its system pancreatic cancer. To be noted: compared with gemcitabine; cited from earlier work.
[6] abbreviates: 1 μM up to 12 μM, 10% FBS, 24, 48 and 72 h.
Setting [7] is: 3 to 12 μM, absence of FBS, evident after 48 h, stronger after 72 h.
Setting [8] is: 30 to 50 μM, medium with 10% FBS.

With `C[C@H](NC(=O)CCc1nc2cccnc2n1Cc1ccc(OC(F)(F)F)cc1)c1ccc(Cl)cc1` [Compound 1, N-[(S)-1-(4-chloro-phenyl)-ethyl]-3-[3-(4-trifluoromethoxy-benzyl)-3H-imidazo[4,5-b]pyridin-2-yl]-propionamide], the “effect on cell proliferation” value in the data set on HT-29 cells [1] (setting [6]), with Caco2 cells (setting [6]), in the data set with RBE cells (setting [6]) and with KKU-M213 cells [2] (setting [6]) was “generally the same as the control” throughout. Further, the “effect of FBS on activity of Compound 1” value is “completely abolishing the Compound 1 effect” with HT-29 cells [1] (9 μM, 72 h, 5% FBS); “significantly (p<0.05) reduced the activity of Compound 1” with HT-29 cells [1] (9 μM, 72 h, starting at 2% FBS); “completely abolishing the Compound 1 effect” in the data set with KKU-M213 cells [2] (9 μM, 72 h, 5% FBS); “significantly (p<0.05) reduced the activity of Compound 1” in the data set on KKU-M213 cells [2] (9 μM, 72 h, starting at 2% FBS). In addition, the “cell inhibition compared to control” value is “clear difference in the cell inhibition compared to the control” in the data set with HT-29 cells [1] (9 μM, 72 h, no FBS) and “clear difference in the cell inhibition compared to the control” in the data set with KKU-M213 cells [2] (9 μM, 72 h, no FBS). The “cytotoxic effect / inhibition of cell proliferation” value in the data set with HT-29 cells [1] (setting [7]), in the data set on Caco2 cells (setting [7]), with RBE cells (setting [7]) and in the data set with KKU-M213 cells [2] (setting [7]) was “significant (p<0.05) cytotoxic effect in a dose-dependent manner” throughout. For the same molecule, the cytotoxic effect result in the data set on HT-29 cells [1] (setting [8]), with Caco2 cells (setting [8]), in the data set on RBE cells (setting [8]) and with KKU-M213 cells [2] (setting [8]) was “significant (p<0.05) cytotoxic effect” throughout. Also, the “differential expression of apoptosis-related proteins” value in data set [3] is “upregulating pro-apoptosic proteins including Bim, Caspase-3 and -8, HTRA, DR6, Fas, p53 and SMAC”. Besides, the “induction of cell apoptosis (Annexin V)” value with HT-29 cells [4] was “significantly (p<0.05) induced cell apoptosis”; in the data set on HLE cells, “the same effect was seen”; with KKU-M213 cells [5] it was “significantly (p<0.05) induced cell apoptosis”. In addition, in the data set with pancreatic cancer, the “activity in pancreatic cancer model” value is “comparable activity with gemcitabine”.
